PMC10714400, “Antimicrobial Peptide–Peptoid Hybrids with and without Membrane Disruption” (ACS Infectious Diseases, 2023)
Converted amounts (≈) assume the structure as drawn. Where a SMILES comes first, the peptide text is derived from it. [ ]: non-standard residue; d: D form. Nleu = CC(C)CNCC(=O)O; Nlys = NCCCCNCC(=O)O

How the values were obtained:
[1] = tested on: human red blood cells (hRBC); assay: Minimum hemolytic concentration (MHC); format: cell-based
Text: We also measured minimal hemolysis concentrations (MHC) on human red blood cells by serial 2-fold dilution as an indication of toxicity against eukaryotic cells (Table 1).

[2] = Circular dichroism, α-helical content; format: physicochemical; conditions: 0.1 mg/mL; for CD %α with 5 mM DPC: 10 mM phosphate buffer pH 7.4, 5 mM DPC; for CD %α with 20% TFE: 10 mM phosphate buffer pH 7.4, 20% TFE
P. aeruginosa PA14 = conditions: Table S3; […] MH at pH 8.5, 16-20 hours at 37 °C
Method: (§1) Antimicrobial activity was assayed for all the peptide–peptoids against P. aeruginosa PAO1, K. pneumoniae NCTC418, E. coli W3110, A. baumannii ATCC 19606, methicillin-resistant S. aureus COL (MRSA), and for selected peptides on P. aeruginosa PA14 and the polymyxin-B-resistant derivatives PA14 4.13, PA14 4.18, PA14 2P4, as well as the clinical isolates ZEM-1A and ZEM9A, K. pneumoniae OXA-48, S. aureus Newman, Enterobacter cloacae, Stenotrophomonas maltophilia, Burkholderia cenocepacia, and Staphylococus epidermidis. To determine the Minimal Inhibitory Concentration (MIC), the Broth Microdilution method was used.[72] A colony of bacteria was picked and grown in LB medium overnight at 37 °C.
(§2) To each well was finally added 4 μL of the diluted bacterial suspension (see above), corresponding to approximately 5 × 10^5 CFU. For each test, two columns of the plate were kept for sterility control (medium only), growth control (medium with bacterial inoculum, no compound). The positive control, Polymyxin B (starting with a concentration of 16 μg/mL) in MH medium with bacterial inocula, was introduced in the two lines of the plate. […] Next, 15 μL of 3-(4,5-dimethylthiazol-2-yl)-2,5-diphenyltetrazolium bromide (MTT)[73] (1 mg/mL in sterilized MilliQ deionized water) were added to each well, and the plates were incubated for 20–30 min at room temperature. The minimal inhibitory concentration (MIC) was defined as the lowest concentration of the compound that inhibits the visible growth of the tested bacteria (yellow) with the unaided eye.

S. aureus Newman = conditions: Table S3; […] MH at pH 8.5
Method: as §1, §2

P. aeruginosa PAO1 = tested on: P. aeruginosa PAO1
Method: as §1
(§3) To each well was finally added 4 μL of the diluted bacterial suspension (see above), corresponding to approximately 5 × 10^5 CFU. For each test, two columns of the plate were kept for sterility control (medium only), growth control (medium with bacterial inoculum, no compound). The positive control, Polymyxin B (starting with a concentration of 16 μg/mL) in MH medium with bacterial inocula, was introduced in the two lines of the plate. The plates were incubated at 37 °C for ca. 18 h under static conditions. Next, 15 μL of 3-(4,5-dimethylthiazol-2-yl)-2,5-diphenyltetrazolium bromide (MTT)[73] (1 mg/mL in sterilized MilliQ deionized water) were added to each well, and the plates were incubated for 20–30 min at room temperature. The minimal inhibitory concentration (MIC) was defined as the lowest concentration of the compound that inhibits the visible growth of the tested bacteria (yellow) with the unaided eye.

A. baumannii ATCC19606 = tested on: A. baumannii ATCC19606
Method: as §1, §3

PA14 4.18 (pmrB) = conditions: […] MH at pH 8.5
Method: as §1, §3

E. coli W3110 = tested on: E. coli W3110
Method: as §1, §3

K. pneumoniae NCTC418 = tested on: K. pneumoniae NCTC418
Method: as §1, §3

PA14 2P4 (pmrB) = conditions: CSV; […] MH at pH 8.5
Method: as §1, §3

S. aureus COL (MRSA) = tested on: S. aureus COL (MRSA)
Method: as §1, §3

PA14 4.13 (phoQ) = conditions: CSV; […] MH at pH 8.5
Method: as §1, §3

Compound: CC(C)C[C@H](NC(=O)[C@H](CCCCN)NC(=O)[C@@H](N)CCCCN)C(=O)N[C@@H](CC(C)C)C(=O)N[C@@H](CCCCN)C(=O)N(CC(=O)N(CC(=O)N(CCCCN)CC(=O)N(CC(=O)N(CC(=O)N(CC(N)=O)CC(C)C)CC(C)C)CC(C)C)CC(C)C)CC(C)C [EB4, KKLLKllklll] (H-KKLLK[Nleu][Nleu][Nlys][Nleu][Nleu][Nleu]-NH2)
- Hemolysis [1]: none of them showed any measurable hemolysis
- MHC [1]: >2000 µg/mL
- CD %α with 5 mM DPC ([2]; DichroWeb, Contin-LL): 9%
- CD %α with 20% TFE ([2]; DichroWeb, Contin-LL): 11%
- CD %α with 5 mM DPC ([2]; Table S2): 9%
- CD %α with 20% TFE ([2]; Table S2): 11%
- MIC P. aeruginosa PA14 (P. aeruginosa PA14): 4 µg/mL (≈ 3.03 µM)
- MIC S. aureus Newman (S. aureus Newman): 8 µg/mL (≈ 6.05 µM)
- MIC P. aeruginosa PAO1, full MH at pH 7.4 (P. aeruginosa PAO1; PAO1, 4 h, pH 7.4): >32 ug/mL
- MIC P. aeruginosa PAO1 […] 8.5 (P. aeruginosa PAO1; Table S2, […] MH, pH 8.5): 4 µg/mL (≈ 3.03 µM)
- MIC P. aeruginosa PAO1 Full MH 7.4 (P. aeruginosa PAO1; Table S2, full MH, pH 7.4): > 32 µg/mL
- MIC A. baumannii ATCC19606, full MH at pH 7.4 (A. baumannii ATCC19606; ATCC19606, 4 h, pH 7.4): >32 ug/mL
- MIC A. baumannii ATCC19606 […] 7.4 (A. baumannii ATCC19606; Table S2, […] MH, pH 7.4): 32 µg/mL (≈ 24.2 µM)
- MIC A. baumannii ATCC19606 […] 8.5 (A. baumannii ATCC19606; Table S2, […] MH, pH 8.5): 16 µg/mL (≈ 12.1 µM)
- MIC A. baumannii ATCC19606 Full MH 7.4 (A. baumannii ATCC19606; Table S2, full MH, pH 7.4): > 32 µg/mL
- MIC A. baumannii ATCC19606 Full MH 8.5 (A. baumannii ATCC19606; Table S2, full MH, pH 8.5): 16 µg/mL (≈ 12.1 µM)
- MIC P. aeruginosa PA14 4.18, […] MH at pH 8.5 (PA14 4.18 (pmrB); CSV): 24 ug/mL
- MIC P. aeruginosa PA14 4.18 (PA14 4.18 (pmrB); Table S3): 16 to 32 µg/mL
- MIC E. coli W3110, […] MH at pH 7.4 (E. coli W3110; CSV, […] MH at pH 7.4): 8 ug/mL
- MIC E. coli W3110, full MH at pH 7.4 (E. coli W3110; CSV, full MH at pH 7.4): >32 ug/mL
- MIC E. coli W3110, full MH at pH 8.5 (E. coli W3110; CSV, full MH at pH 8.5): 8 ug/mL
- MIC E. coli W3110 […] 7.4 (E. coli W3110; Table S2, […] MH, pH 7.4): 8 µg/mL (≈ 6.05 µM)
- MIC E. coli W3110 […] 8.5 (E. coli W3110; Table S2, […] MH, pH 8.5): 2 µg/mL (≈ 1.51 µM)
- MIC E. coli W3110 Full MH 7.4 (E. coli W3110; Table S2, full MH, pH 7.4): > 32 µg/mL
- MIC E. coli W3110 Full MH 8.5 (E. coli W3110; Table S2, full MH, pH 8.5): 8 µg/mL (≈ 6.05 µM)
- MIC K. pneumoniae NCTC418, full MH at pH 7.4 (K. pneumoniae NCTC418; NCTC418, 4 h, pH 7.4): >32 ug/mL
- MIC K. pneumoniae NCTC418 […] 7.4 (K. pneumoniae NCTC418; Table S2, […] MH, pH 7.4): > 32 µg/mL
- MIC K. pneumoniae NCTC418 […] 8.5 (K. pneumoniae NCTC418; Table S2, […] MH, pH 8.5): 32 µg/mL (≈ 24.2 µM)
- MIC K. pneumoniae NCTC418 Full MH 7.4 (K. pneumoniae NCTC418; Table S2, full MH, pH 7.4): > 32 µg/mL
- MIC K. pneumoniae NCTC418 Full MH 8.5 (K. pneumoniae NCTC418; Table S2, full MH, pH 8.5): 16 µg/mL (≈ 12.1 µM)
- MIC P. aeruginosa PA14 2P4, […] MH at pH 8.5 (PA14 2P4 (pmrB)): 16 ug/mL
- MIC S. aureus COL (MRSA), full MH at pH 7.4 (S. aureus COL (MRSA); COL, 4 h, pH 7.4): >32 ug/mL
- MIC S. aureus COL (MRSA) […] 7.4 (S. aureus COL (MRSA); Table S2, […] MH, pH 7.4): 32 µg/mL (≈ 24.2 µM)
- MIC S. aureus COL (MRSA) Full MH 7.4 (S. aureus COL (MRSA); Table S2, full MH, pH 7.4): > 32 µg/mL
- MIC S. aureus COL (MRSA) Full MH 8.5 (S. aureus COL (MRSA); Table S2, full MH, pH 8.5): 16 µg/mL (≈ 12.1 µM)
- MIC P. aeruginosa PA14 4.13, […] MH at pH 8.5 (PA14 4.13 (phoQ)): 8 ug/mL
